In a melting point compilation (Tetko et al.; mined from patent text by program, amines drawn as free bases though some values may be those of a salt):

Row | Structure (SMILES) | melting point
1 | N#Cc1c(N2CCCCC2)cc(-c2ccc3ccc4cccc5ccc2c3c45)c2c1-c1ccccc1C2=O | 220 to 222 °C
2 | CCCN1CCN(c2ccc(C(C)=O)cc2)CC1 | 68 to 70 °C
3 | Nc1ccccc1OC1CCCC1 | 87 to 87.5 °C
4 | C=CCOc1ccc(COc2ccc(CC(=O)O)cc2Cl)cc1Cl | 132 to 134 °C
5 | NC1=NN(c2ccccn2)C(c2ccccc2)C1 (configuration not stated) | 203 to 206 °C
6 | COc1c(Cc2ccccc2)cc(C(=O)c2cccs2)c2ccccc12 | 111 to 113 °C
7 | CCCCc1oc2ccccc2c1Cc1ccc(OS(=O)(=O)c2ccc(C(=O)O)c(O)c2)cc1 | 135 to 138 °C
8 | Cc1oc(-c2ccc(C(C)C)cc2)nc1CCOc1ccc(C[C@H](OCC(F)(F)F)C(=O)O)c2sccc12 | 181 to 182 °C
9 | O=C(Nc1ccc(OCc2ccncc2)c2ccccc12)c1cc(F)cc(OC2CCCCC2)c1 | 176 to 178 °C
10 | CN(C)CCOc1ccc(C2(c3ccccc3)OCCC2c2ccccc2)cc1 (configuration not stated) | 83 to 85 °C
11 | COc1ccc(C=O)cc1OC1CC=CC1 | 60 to 62 °C
12 | CCOC(=O)C1=CCC2(CC1S(=O)(=O)Nc1ccc(F)cc1Cl)OCCO2 (configuration not stated) | 120 to 122 °C
13 | CC(C)c1ccc(C(=O)C2=C(O)C(=O)N(c3ccc(O)nn3)C2c2ccc(OC(F)(F)F)cc2)cc1 (configuration not stated) | 255 °C
14 | Cc1cc(C)c(C(=O)c2ccc(Cl)cc2)c(Cl)c1 | 41 to 52 °C
15 | COc1cnc(NCCCOc2cccc(CN3CCCCC3)c2)[nH]c1=O | 148 to 150 °C
16 | CCN(CC)C(=O)CP(=S)(c1ccccc1)c1ccccc1 | 108 to 110 °C
17 | Cc1cccc(NC(=O)NCC(=O)N2[C@@H](c3ccccc3)CC[C@H]2c2ccccc2)c1 | 168 °C
18 | O=C(O)CCc1cc2cc(Cl)ccc2n1S(=O)(=O)c1ccc2c(c1)CCN2 | 157 °C
19 | CCNc1nc(OC)c(C(=O)NC2CCN(C3CCCCC3)C2)nc1Cl (configuration not stated) | 171 to 173 °C
20 | COc1nc(C)c2c(c1C#N)CCCC2 | 116 °C
21 | O=C(O)c1cc(NC(=O)C(CS)Cc2ccccc2)ccc1Cl (configuration not stated) | 190 to 192 °C
22 | CCOC(=O)c1cn2c(n1)CN=C(c1ccccn1)c1cc(Br)ccc1-2 | 227 to 230 °C
23 | CCOCc1cnc2c(NC(=O)c3c(Cl)cccc3Cl)cccc2c1Cl | 121 to 123 °C

Row | Structure (SMILES) | melting point
24 | CCN1C(=O)CSC1=NOC(=O)NCCCl | 99 to 102 °C
25 | CC(=O)OC1CSC(Oc2cccnc2[N+](=O)[O-])C(OC(C)=O)C1OC(C)=O (configuration not stated) | 178 °C
26 | COc1cc(C(=O)C(Br)Br)cc(OC)c1OC | 67 to 68 °C
27 | CCOC(=O)c1cc(C(C)=O)[nH]n1 | 114 to 115 °C
28 | CC(C)(N)CNc1ncc2ncnc(Nc3ccc(F)c(Cl)c3)c2n1 | 205 to 207 °C
29 | CC(O)C(C)(C)NC(N)=S (configuration not stated) | 148 to 151 °C
30 | CC12CC3(C)CC(Br)(C1)CC(Br)(C2)C3 | 115 to 116 °C
31 | CC(=O)N1CCC(Oc2c(F)c(F)c(F)c(F)c2F)(c2ccccc2)CC1 | 115 to 120 °C
32 | Cn1c(C(F)(F)F)nc(-c2ccc(F)cc2)c1-c1ccc(S(C)(=O)=O)cc1 | 187 to 189 °C
33 | COc1cc(-c2cc(=O)c3ccc(OCC(O)CNC(C)(C)C)cc3o2)cc(OC)c1OC (configuration not stated) | 119 to 120 °C
34 | CCC(CC)C(NS(=O)(=O)c1cc(Cl)c(Cl)s1)c1ccnn1-c1ccccc1 (configuration not stated) | 116 to 120 °C
35 | CCCCCCn1c(C)cc(C)c(C#N)c1=O | 63 to 69 °C
36 | CCn1c(=O)c2c(nc(/C=C/c3ccc(C)cc3)n2C)n(CC)c1=O | 171 to 172 °C
37 | COCCOc1c(S(C)(=O)=O)ccc(C(=O)O)c1Cl | 89 to 92 °C
38 | CS(=O)(=O)c1ccc(-c2c(C(=O)O)c3cccccc-3c2-c2ccccc2)cc1 | 168 to 169 °C
39 | COC(=O)Cc1ccc(CNC(=O)C2Cc3ccccc3N2S(=O)(=O)c2ccc(-c3cccc(C(F)(F)F)c3)cc2)cc1C (configuration not stated) | 60 to 67 °C
40 | Cc1nc(/C=C/c2cn(-c3ccccc3)nc2O)cs1 | 211 to 212 °C
41 | CCOC(=O)C1=C(C)NC(CO)=C(C(=O)OCC)C1c1ccccc1C(F)(F)F (configuration not stated) | 147 to 148 °C
42 | CCOCC(O)COc1cccc2oc(-c3ccccc3)cc(=O)c12 (configuration not stated) | 85 to 86.5 °C
43 | CCCCCC(=O)OC(C)c1ccc(-c2ccc(C(=O)O)cc2)cc1 (single isomer, unassigned; (+)) | 133 to 135 °C
44 | CCNC(=O)N1C[C@@H](c2c[nH]c3ccccc23)[C@H](c2cn3c4c(cccc24)CCC3)C1 | 278 to 279 °C
45 | CC(C)NC(=O)c1nsc2ccc(-n3c(=O)cc(C(F)(F)F)n(C)c3=O)cc12 | 110 to 113 °C

Other lines, results leading:

Row | melting point | Structure (SMILES)
46 | 174 to 176 °C | COC(=O)C1=C(C(OC)OC)NC(C)=C(P2(=O)OCCCO2)C1c1ccccc1[N+](=O)[O-] (configuration not stated)
47 | 122 to 125 °C | O=Cc1cccc(C=O)c1O
48 | > 260 °C | N[C@@H](CSCc1ccc(C(=O)O)cc1)C(=O)O
49 | 122 to 128 °C | Cc1noc(NS(=O)(=O)c2ccccc2-c2ccc(-c3ncco3)cc2CN(C)C(=O)c2ccc(F)c(F)c2)c1C
50 | 142 to 143 °C | COC(=O)c1ccc(-c2nnc(-c3ccc(C(C)(C)C)cc3)o2)c([N+](=O)[O-])c1
51 | 106 to 108 °C | CC(C)=CCC/C(C)=C/CSc1nc2cc(C(F)(F)F)ccc2[nH]1
52 | 197 to 199 °C | CC(=O)On1cc(-c2ccccc2)c(=O)c(-c2ccccc2)c1
53 | 126 °C | CN1CC(c2ccc(Cl)cc2)C(=O)C(c2cccc(Cl)c2)C1 (configuration not stated)
54 | 167 to 169 °C | NC(=NO)c1ccc(-c2ccc(Cl)cc2)o1
55 | 177 to 178 °C | CCCn1c(=O)n(-c2ccc3c(c2)OCO3)c2ncc(N)cc21
56 | 80 °C | COC(=O)c1cnc(COC(=O)C(C)(C)Oc2ccc(Cl)cc2)s1
57 | 54 to 55 °C | CCc1ccccc1C(N)=NO
58 | 77 to 78 °C | CC(O)CCc1ccc2c(c1)C(=O)c1ccccc1-2 (configuration not stated)
59 | 158 to 160 °C | CC1OC(n2cc(F)c(NC(=O)c3ccccc3)nc2=O)C(OC(=O)c2ccccc2)C1OC(=O)c1ccccc1 (configuration not stated)
60 | 190 to 192 °C | C[C@@H]1C[C@H](C)CN(S(=O)(=O)c2ccc(Cl)c(C(=O)NCC(=O)O)c2)C1
61 | 182 °C | COCCOc1ccc(/C=C/C(=O)NS(=O)(=O)c2ccc(Cl)cc2)c(Oc2ncc(C(F)(F)F)cc2Cl)c1
62 | 128 to 129 °C | CNc1ccc(C23CC2C(=O)N(C)C3=O)cc1 (configuration not stated)
63 | 259 to 260 °C | CCC(C)c1ccc(-n2c(-c3cc(C)c(OCCO)c(C)c3)nc3ccc(S(C)(=O)=O)cc3c2=O)cc1 (configuration not stated)
64 | 145 to 150 °C | Cc1ccnc(CSc2nc3ccccc3c(=O)n2-c2ccccc2)c1
65 | 128 to 131 °C | COC(=O)c1ccc(-c2ccc(OC)c(OC3CCCC3)c2)cc1
66 | 171 to 172 °C | Cc1cc2ncnn2nc1OCC(C)(C)CCCS(N)(=O)=O
67 | 165 °C | O=C(c1ccc(F)cc1)c1ccc2n1CCC2C(=O)O (configuration not stated)
68 | 114 to 115 °C | COC(=O)C=Cc1ccc(Cl)c(Cl)c1
69 | 214 to 216 °C | Cc1ccc(-c2ccc(Cl)c(C(=O)NCC34CC5CC(CC(C5)C3)C4)c2)c(C(=O)O)c1
70 | 108 to 110 °C | CN(C)C[C@H]1CC[C@H](CCNc2ncc(Br)cn2)CC1
71 | 181 °C | CC1(C(=O)O)Oc2ccc(Cl)cc2C(C)(c2ccccc2)O1 (configuration not stated)
72 | 66 to 67 °C | N#Cc1cccc2c1NCC2
